Results reported in ChEMBL document CHEMBL2074355, “Biochemical mechanism of modulation of human P-glycoprotein (ABCB1) by curcumin I, II, and III purified from Turmeric powder” (Biochem Pharmacol, 2004).

Assays:
Type in all cases: functional, cell-based
[1] = target: T1, ATP-dependent translocase ABCB1 (Homo sapiens, UniProt P08183); experiment: TP_TRANSPORTER: increase in bodipy-FL-vinblastine intracellular accumulation in human KB-V1 cells
[2] = target: T1, ATP-dependent translocase ABCB1; experiment: TP_TRANSPORTER: increase in Rhodamine 123 intracellular accumulation in human KB-V1 cells
[3] = target: T1, ATP-dependent translocase ABCB1; experiment: TP_TRANSPORTER: increase in Calcein-AM intracellular accumulation in human KB-V1 cells

Measured: Activity

T1 sequence (P08183 whole entry): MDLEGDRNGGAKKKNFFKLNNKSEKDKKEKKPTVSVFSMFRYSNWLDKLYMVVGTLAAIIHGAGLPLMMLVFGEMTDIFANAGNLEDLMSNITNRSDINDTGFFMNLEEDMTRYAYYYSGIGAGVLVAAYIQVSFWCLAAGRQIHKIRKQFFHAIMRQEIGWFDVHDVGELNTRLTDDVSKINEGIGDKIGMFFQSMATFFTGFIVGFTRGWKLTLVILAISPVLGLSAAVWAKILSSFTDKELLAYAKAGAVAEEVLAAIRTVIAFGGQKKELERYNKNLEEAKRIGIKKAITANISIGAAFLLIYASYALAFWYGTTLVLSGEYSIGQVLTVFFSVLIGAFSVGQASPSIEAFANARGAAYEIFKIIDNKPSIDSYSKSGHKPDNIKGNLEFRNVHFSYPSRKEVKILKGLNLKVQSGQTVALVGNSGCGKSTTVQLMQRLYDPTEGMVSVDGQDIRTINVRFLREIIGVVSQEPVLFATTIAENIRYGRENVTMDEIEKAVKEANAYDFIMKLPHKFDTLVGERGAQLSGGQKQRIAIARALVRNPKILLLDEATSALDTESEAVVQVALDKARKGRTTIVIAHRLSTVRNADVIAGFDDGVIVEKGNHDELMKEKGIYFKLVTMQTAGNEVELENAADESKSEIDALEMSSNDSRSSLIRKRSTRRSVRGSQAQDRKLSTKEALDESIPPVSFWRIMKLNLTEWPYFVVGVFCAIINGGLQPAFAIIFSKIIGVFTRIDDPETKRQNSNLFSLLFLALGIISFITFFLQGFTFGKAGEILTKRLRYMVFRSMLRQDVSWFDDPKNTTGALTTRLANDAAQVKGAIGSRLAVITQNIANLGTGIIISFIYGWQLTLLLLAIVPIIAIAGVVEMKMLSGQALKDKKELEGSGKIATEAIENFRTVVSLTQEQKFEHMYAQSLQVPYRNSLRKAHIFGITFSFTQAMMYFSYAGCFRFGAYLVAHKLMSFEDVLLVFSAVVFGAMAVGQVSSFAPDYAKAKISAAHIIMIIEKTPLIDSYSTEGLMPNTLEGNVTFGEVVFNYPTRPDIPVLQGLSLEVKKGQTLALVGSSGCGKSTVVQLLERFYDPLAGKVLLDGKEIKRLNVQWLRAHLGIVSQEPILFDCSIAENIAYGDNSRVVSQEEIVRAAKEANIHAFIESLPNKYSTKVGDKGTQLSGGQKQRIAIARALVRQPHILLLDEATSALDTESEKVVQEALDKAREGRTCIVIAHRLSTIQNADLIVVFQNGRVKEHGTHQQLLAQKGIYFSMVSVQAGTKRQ

COc1cc(/C=C/C(=O)CC(=O)/C=C/c2ccc(O)c(OC)c2)ccc1O [CURCUMIN]
inhibitor [+]: all assays above
